This is an account of results in patent US12528815B2, “5-amino-8-(4-pyridyl)-[1,2,4]triazolo[4,3-c]pyrimidin-3-one compounds for use against cancer” (Nxera Pharma UK Limited, priority 2020, dated 2026).

Test [1] has as its target T1, human adenosine A1 receptor (Homo sapiens, UniProt P30542).
T1 construct: expressed in transfected cells; host or cells: HEK293 cells infected with BacMam (the same paragraph also labels the preparation CHO-hA1)
T1 sequence (P30542 1-326): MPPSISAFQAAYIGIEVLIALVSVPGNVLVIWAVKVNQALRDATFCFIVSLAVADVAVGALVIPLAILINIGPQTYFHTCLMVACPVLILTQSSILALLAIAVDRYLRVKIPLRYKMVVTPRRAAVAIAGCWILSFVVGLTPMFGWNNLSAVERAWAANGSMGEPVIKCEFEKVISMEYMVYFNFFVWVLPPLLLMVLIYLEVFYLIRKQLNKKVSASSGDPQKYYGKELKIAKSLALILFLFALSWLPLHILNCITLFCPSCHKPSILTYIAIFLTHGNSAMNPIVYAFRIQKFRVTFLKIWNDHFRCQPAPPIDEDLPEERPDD
The test is described as follows: Inhibition binding assay, human adenosine A1 receptor membranes, [3H]DPCPX. Particulars: 1 nM [3H]DPCPX, 25° C., 1 h; IC50 converted to Ki with Cheng-Prusoff; read-out: A1 pKi (converted). Put shortly: (§1)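 Membranes from BacMam-infected HEK293 cells (0.2 μg A2A, 1.4 μg A1) incubated 1 h at 25° C with test compound and 1 nM [3H]ZM241385 (A2A; 50 mM Tris-HCl pH 7.4) or [3H]DPCPX (A1; plus 100 mM NaCl, 10 mM MgCl2). Nonspecific: 1 μM CGS15943 or DPCPX. Filtration, scintillation; IC50 converted to Ki via Cheng-Prusoff.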

For test [2], the target named is T2, human adenosine A2A receptor (Homo sapiens, UniProt P29274).
T2 construct: expressed in transfected cells; host or cells: HEK293 cells infected with BacMam
T2 sequence (P29274 whole entry): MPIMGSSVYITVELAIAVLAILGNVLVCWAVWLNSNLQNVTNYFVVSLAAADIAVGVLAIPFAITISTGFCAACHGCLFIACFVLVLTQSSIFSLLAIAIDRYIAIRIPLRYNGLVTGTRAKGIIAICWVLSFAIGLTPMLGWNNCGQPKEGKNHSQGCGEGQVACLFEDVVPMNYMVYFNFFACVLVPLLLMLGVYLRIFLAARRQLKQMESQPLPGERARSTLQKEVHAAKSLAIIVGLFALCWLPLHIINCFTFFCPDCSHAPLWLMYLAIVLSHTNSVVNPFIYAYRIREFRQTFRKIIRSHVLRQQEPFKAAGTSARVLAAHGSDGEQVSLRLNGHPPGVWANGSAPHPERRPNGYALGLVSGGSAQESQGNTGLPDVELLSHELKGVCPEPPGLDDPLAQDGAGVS
Nature of the test: Inhibition binding assay, human adenosine A2A receptor membranes, [3H]ZM241385. Particulars: 1 nM [3H]ZM241385, HEK293-hA2A membranes, 25° C., 1 h; IC50 converted to Ki with Cheng-Prusoff; read-out: A2A pKi (converted). Put shortly:
as §1

Consider `COc1ccc(Cn2nc3c(-c4cc(C)nc(C)c4)c(-c4ccccc4)nc(N)n3c2=O)nn1` [Example 1-33, 5-amino-8-(2,6-dimethyl-4-pyridyl)-2-[(6-methoxypyridazin-3-yl)methyl]-7-phenyl-[1,2,4]triazolo[4,3-c]pyrimidin-3-one], for which the results for the Ki in test [1] and in test [2] were 1000 nM and 25.1 nM, respectively.

For `Cc1cc(-c2c(-c3ccccc3)nc(N)n3c(=O)n(C(CN)c4c(F)cccc4F)nc23)cc(C)n1` (centres unmarked) [Example 1-34, 5-amino-2-(2-amino-1-(2,6-difluorophenyl)ethyl)-8-(2,6-dimethylpyridin-4-yl)-7-phenyl-[1,2,4]triazolo[4,3-c]pyrimidin-3(2H)-one], the results for the Ki in test [1] and in test [2] were 100 nM and 1 nM, respectively.

In the case of `Cc1cc(-c2c(-c3ccccc3)nc(N)n3c(=O)n(Cc4ncc(F)cn4)nc23)cc(C)n1` [Example 1-35, 5-amino-8-(2,6-dimethyl-4-pyridyl)-2-[(5-fluoropyrimidin-2-yl)methyl]-7-phenyl-[1,2,4]triazolo[4,3-c]pyrimidin-3-one], the Ki was 1000 nM in test [1] and 15.8 nM in test [2].

As to `Cc1cc(-c2c(-c3ccccc3)nc(N)n3c(=O)n(Cc4ccc(F)c(N)n4)nc23)cc(C)n1` [Example 1-36, 5-amino-2-[(6-amino-5-fluoro-2-pyridyl)methyl]-8-(2,6-dimethyl-4-pyridyl)-7-phenyl-[1,2,4]triazolo[4,3-c]pyrimidin-3-one], the results for the Ki in test [1] and in test [2] were 100 nM and 0.251 nM, respectively.

With `Cc1cc(-c2c(-c3ccccc3)nc(N)n3c(=O)n(Cc4ccc(O)nn4)nc23)cc(C)n1` [Example 1-37, 5-amino-8-(2,6-dimethyl-4-pyridyl)-2-[(6-hydroxypyridazin-3-yl)methyl]-7-phenyl-[1,2,4]triazolo[4,3-c]pyrimidin-3-one], the Ki in test [1] is above 3160 nM; in test [2], 63.1 nM.

On to `Cc1cc(-c2c(-c3ccccc3)nc(N)n3c(=O)n(Cc4ncc(F)cc4Cl)nc23)cc(C)n1` [Example 1-39, 5-amino-2-[(3-chloro-5-fluoro-2-pyridyl)methyl]-8-(2,6-dimethyl-4-pyridyl)-7-phenyl-[1,2,4]triazolo[4,3-c]pyrimidin-3-one], for which the Ki is 63.1 nM in test [1] and 0.631 nM in test [2].

On to `Cc1cc(-c2c(-c3ccccc3)nc(N)n3c(=O)n(Cc4cccnn4)nc23)cc(C)[n+]1[O-]` [Example 1-43, 5-amino-8-(2,6-dimethyl-1-oxido-pyridin-1-ium-4-yl)-7-phenyl-2-(pyridazin-3-ylmethyl)-[1,2,4]triazolo[4,3-c]pyrimidin-3-one], for which the values for the Ki in test [1] and in test [2] were 316 nM and 31.6 nM, respectively.

On to `COc1cnc(Cn2nc3c(-c4cc(C)nc(CO)c4)c(-c4ccccc4)nc(N)n3c2=O)c(F)c1` [Example 1-47, 5-amino-2-[(3-fluoro-5-methoxy-2-pyridyl)methyl]-8-[2-(hydroxymethyl)-6-methyl-4-pyridyl]-7-phenyl-[1,2,4]triazolo[4,3-c]pyrimidin-3-one], for which the Ki was 501 nM in test [1] and 7.94 nM in test [2].

Consider `Cc1cc(-c2c(-c3ccccc3)nc(N)n3c(=O)n(Cc4ccc(F)c(O)n4)nc23)cc(CO)n1` [Example 1-48, 5-amino-2-[(5-fluoro-6-hydroxy-2-pyridyl)methyl]-8-[2-(hydroxymethyl)-6-methyl-4-pyridyl]-7-phenyl-[1,2,4]triazolo[4,3-c]pyrimidin-3-one], for which the Ki is above 2510 nM in test [1] and 10 nM in test [2].

For `[2H]c1c([2H])c([2H])c(-c2nc(N)n3c(=O)n(Cc4ccc(F)cn4)nc3c2-c2cc(C)nc(CO)c2)c([2H])c1[2H]` [Example 1-49, 5-amino-2-[(5-fluoro-2-pyridyl)methyl]-8-[2-(hydroxymethyl)-6-methyl-4-pyridyl]-7-(2,3,4,5,6-pentadeuteriophenyl)-[1,2,4]triazolo[4,3-c]pyrimidin-3-one], the Ki in test [1] was 398 nM; in test [2] it was 1.58 nM.

On to `Cc1cc(-c2c(-c3ccccc3)nc(N)n3c(=O)n(Cc4ncc(F)cc4Cl)nc23)cc(CO)n1` [Example 1-50, 5-amino-2-[(3-chloro-5-fluoro-2-pyridyl)methyl]-8-[2-(hydroxymethyl)-6-methyl-4-pyridyl]-7-phenyl-[1,2,4]triazolo[4,3-c]pyrimidin-3-one], for which the figures for the Ki in test [1] and in test [2] were 200 nM and 1 nM, respectively.

For the compound `[2H]c1c([2H])c([2H])c(-c2nc(N)n3c(=O)n(Cc4ccc(F)c(N)n4)nc3c2-c2cc(C)nc(CO)c2)c([2H])c1[2H]` [Example 1-51, 5-amino-2-[(6-amino-5-fluoro-2-pyridyl)methyl]-8-[2-(hydroxymethyl)-6-methyl-4-pyridyl]-7-(2,3,4,5,6-pentadeuteriophenyl)-[1,2,4]triazolo[4,3-c]pyrimidin-3-one], the Ki in test [1] was 251 nM; in test [2], 2 nM.

`Cc1cc(-c2c(-c3ccccc3)nc(N)n3c(=O)n(Cc4ccc(Br)cn4)nc23)cc(CO)n1` [Example 1-53, 5-amino-2-[(5-bromo-2-pyridyl)methyl]-8-[2-(hydroxymethyl)-6-methyl-4-pyridyl]-7-phenyl-[1,2,4]triazolo[4,3-c]pyrimidin-3-one]: the Ki in test [1] was 501 nM; in test [2], 2.51 nM.

Regarding `Cc1cc(-c2c(-c3ccccc3)nc(N)n3c(=O)n(Cc4ccc(Cl)cn4)nc23)cc(CO)n1` [Example 1-55, 5-amino-2-[(5-chloro-2-pyridyl)methyl]-8-[2-(hydroxymethyl)-6-methyl-4-pyridyl]-7-phenyl-[1,2,4]triazolo[4,3-c]pyrimidin-3-one], the Ki was 501 nM in test [1] and 1.58 nM in test [2].

As to `Cc1cc(-c2c(-c3ccccc3)nc(N)n3c(=O)n(Cc4cccnn4)nc23)cc(CO)n1` [Example 1-56, 5-amino-8-[2-(hydroxymethyl)-6-methyl-4-pyridyl]-7-phenyl-2-(pyridazin-3-ylmethyl)-[1,2,4]triazolo[4,3-c]pyrimidin-3-one], the Ki is 200 nM in test [1] and 3.98 nM in test [2].

As for `Cc1cc(-c2c(-c3ccc(F)cc3)nc(N)n3c(=O)n(Cc4cccnn4)nc23)cc(CO)n1` [Example 1-58, 5-amino-7-(4-fluorophenyl)-8-[2-(hydroxymethyl)-6-methyl-4-pyridyl]-2-(pyridazin-3-ylmethyl)-[1,2,4]triazolo[4,3-c]pyrimidin-3-one], the Ki in test [1] is 631 nM; in test [2], 12.6 nM.

Regarding `Cc1cc(-c2c(-c3ccc(F)cc3)nc(N)n3c(=O)n(Cc4ccc(F)c(N)n4)nc23)cc(CO)n1` [Example 1-60, 5-amino-2-[(6-amino-5-fluoro-2-pyridyl)methyl]-7-(4-fluorophenyl)-8-[2-(hydroxymethyl)-6-methyl-4-pyridyl]-[1,2,4]triazolo[4,3-c]pyrimidin-3-one], the Ki is 794 nM in test [1] and 1.58 nM in test [2].

Regarding `Cc1ccc(Cn2nc3c(-c4cc(C)nc(CO)c4)c(-c4ccc(F)cc4)nc(N)n3c2=O)nc1` [Example 1-61, 5-amino-7-(4-fluorophenyl)-8-[2-(hydroxymethyl)-6-methyl-4-pyridyl]-2-[(5-methyl-2-pyridyl)methyl]-[1,2,4]triazolo[4,3-c]pyrimidin-3-one], the Ki in test [1] is above 1580 nM; in test [2] it was 1.58 nM.

As for `Cc1cc(-c2c(-c3ccc(F)cc3)nc(N)n3c(=O)n(Cc4ccc(Cl)cn4)nc23)cc(CO)n1` [Example 1-62, 5-amino-2-[(5-chloro-2-pyridyl)methyl]-7-(4-fluorophenyl)-8-[2-(hydroxymethyl)-6-methyl-4-pyridyl]-[1,2,4]triazolo[4,3-c]pyrimidin-3-one], the Ki in test [1] is 1000 nM; in test [2] it was 3.98 nM.

On to `Cc1cc(-c2c(-c3ccc(F)cc3)nc(N)n3c(=O)n(Cc4ccc(C#N)cn4)nc23)cc(CO)n1` [Example 1-63, 6-[[5-amino-7-(4-fluorophenyl)-8-[2-(hydroxymethyl)-6-methyl-4-pyridyl]-3-oxo-[1,2,4]triazolo[4,3-c]pyrimidin-2-yl]methyl]pyridine-3-carbonitrile], for which the Ki in test [1] is above 3980 nM; in test [2] it was 631 nM.

For `COc1cc(-c2c(-c3ccccc3)nc(N)n3c(=O)n(Cc4ccc(C)cn4)nc23)cc(CO)n1` [Example 1-66, 5-amino-8-[2-(hydroxymethyl)-6-methoxy-4-pyridyl]-2-[(5-methyl-2-pyridyl)methyl]-7-phenyl-[1,2,4]triazolo[4,3-c]pyrimidin-3-one], the Ki in test [1] was 501 nM; in test [2], 0.631 nM.

Turning to `COc1cc(-c2c(-c3ccc(F)cc3)nc(N)n3c(=O)n(Cc4ccc(Cl)cn4)nc23)cc(CO)n1` [Example 1-68, 5-amino-2-[(5-chloro-2-pyridyl)methyl]-7-(4-fluorophenyl)-8-[2-(hydroxymethyl)-6-methoxy-4-pyridyl]-[1,2,4]triazolo[4,3-c]pyrimidin-3-one], the Ki in test [1] is above 1580 nM; in test [2] it was 1.26 nM.
